Literature values, collected in article PMC8604667 (International Journal of Pharmaceutics: X, 2021).

What was measured:
[1] = ref Venditto and Simanek, 2010
P-glycoprotein = conditions: ref Takemoto et al., 2006; Negi et al., 2013

What does the source list for CC[C@@]1(O)C(=O)OCc2c1cc1n(c2=O)Cc2cc3ccccc3nc2-1 [camptothecin, Camptothecin]?
pH at which lactone and carboxylate forms co-exist at 50% [1]: 6.65; P-glycoprotein substrate (P-glycoprotein): P-glycoprotein substrate
